The record followed here is ChEMBL document CHEMBL1129676, “1-substituted 4-aryl-5-pyridinylimidazoles: a new class of cytokine suppressive drugs with low 5-lipoxygenase and cyclooxygenase inhibitory potency” (J Med Chem, 1996).

In general, IC50 refers to the point on the concentration scale where inhibition reaches its midpoint. Lower therefore signals greater potency in that assay.

For experiment [1], the target named is MAP kinase p38 (Homo sapiens, UniProt O15264+Q15759+Q16539+P53778). In words: In vitro inhibitory concentration against radioligand [3H]SB-202190 binding to CSBP kinase in human monocytic cell line, THP-1.
Experiment [2] concerns the target T1, Polyunsaturated fatty acid 5-lipoxygenase (Rattus norvegicus, UniProt P12527).
T1 sequence (P12527 whole entry): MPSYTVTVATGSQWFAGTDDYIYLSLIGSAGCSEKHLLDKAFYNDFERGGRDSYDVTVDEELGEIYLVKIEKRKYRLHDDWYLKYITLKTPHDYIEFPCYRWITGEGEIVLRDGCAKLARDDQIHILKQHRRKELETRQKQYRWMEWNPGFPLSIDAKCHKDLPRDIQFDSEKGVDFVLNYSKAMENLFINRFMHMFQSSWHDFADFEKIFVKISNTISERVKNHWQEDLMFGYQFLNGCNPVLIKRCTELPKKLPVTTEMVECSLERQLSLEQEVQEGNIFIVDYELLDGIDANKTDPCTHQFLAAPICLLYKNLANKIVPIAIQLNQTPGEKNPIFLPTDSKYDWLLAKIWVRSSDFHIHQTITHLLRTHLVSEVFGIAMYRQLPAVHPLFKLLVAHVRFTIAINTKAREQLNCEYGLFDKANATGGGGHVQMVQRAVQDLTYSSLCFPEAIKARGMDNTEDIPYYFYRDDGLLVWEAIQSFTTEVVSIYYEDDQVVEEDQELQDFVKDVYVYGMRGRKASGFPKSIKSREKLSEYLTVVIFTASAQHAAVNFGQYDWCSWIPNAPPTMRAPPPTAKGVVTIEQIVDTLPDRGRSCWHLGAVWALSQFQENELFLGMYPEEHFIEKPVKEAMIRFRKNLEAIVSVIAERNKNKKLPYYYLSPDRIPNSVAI
As to the kind of experiment: Inhibitory concentration against 5-lipoxygenase in rat RBL-1 cells. It is filed as cell-based.

Experiment [3] has as its system Mus musculus. In words: In vivo inhibition of LPS-induced TNF production in mice 50 mg/Kg. The experiment is classed as functional.
For experiment [4], the target named is T2, Prostaglandin G/H synthase 1 (Ovis aries, UniProt P05979).
T2 sequence (P05979 whole entry): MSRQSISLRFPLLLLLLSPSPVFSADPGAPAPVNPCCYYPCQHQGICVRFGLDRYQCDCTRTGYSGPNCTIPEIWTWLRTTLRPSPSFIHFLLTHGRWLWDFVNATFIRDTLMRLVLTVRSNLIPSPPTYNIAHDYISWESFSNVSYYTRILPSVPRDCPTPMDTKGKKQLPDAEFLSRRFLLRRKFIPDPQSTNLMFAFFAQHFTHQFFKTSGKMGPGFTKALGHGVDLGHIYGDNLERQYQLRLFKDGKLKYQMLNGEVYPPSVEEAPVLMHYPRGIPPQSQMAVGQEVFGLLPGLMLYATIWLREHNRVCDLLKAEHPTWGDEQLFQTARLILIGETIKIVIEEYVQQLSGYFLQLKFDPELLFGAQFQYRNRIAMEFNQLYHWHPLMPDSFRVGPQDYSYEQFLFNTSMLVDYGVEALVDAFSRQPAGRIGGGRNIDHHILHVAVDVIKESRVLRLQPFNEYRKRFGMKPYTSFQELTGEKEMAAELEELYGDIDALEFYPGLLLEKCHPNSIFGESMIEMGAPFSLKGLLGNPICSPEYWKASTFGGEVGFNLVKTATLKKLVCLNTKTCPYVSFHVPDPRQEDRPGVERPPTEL
As to the kind of experiment: Inhibitory concentration against Prostaglandin H2 synthase 1 (PGHS-1) from ram seminal vesicle.

For `Cc1cc(-c2c(-c3ccc(F)cc3)ncn2CCCN2CCOCC2)cc(C)n1`, the IC50 in experiment [1] was found to be 25000 nM.

With `Fc1ccc(-c2ncn(CCCN3CCOCC3)c2-c2ccnc(Cl)c2)cc1`, the IC50 in experiment [1] was determined as 1890 nM.

As for `Fc1ccc(-c2ncn(C3CC3)c2-c2ccncc2)cc1`, the IC50 is 60000 nM in experiment [2], 80 nM in experiment [1] and 16000 nM in experiment [4]. In experiment [3], the Change was -79%.

`O=S(=O)(CCCn1cnc(-c2ccc(F)cc2)c1-c1ccncc1)c1ccccc1` showed an IC50 in experiment [1] of 1810 nM. The Change in experiment [3] is on record as -42%.

`CN(CCCn1cnc(-c2ccc(F)cc2)c1-c1ccncc1)Cc1ccccc1` gave an IC50 in experiment [1] of 130 nM. For the same molecule, the Change in experiment [3] is on record as -28%.

`Fc1ccc(-c2ncn(CCCN3CCOCC3)c2-c2ccccn2)cc1` displayed an IC50 in experiment [1] of 6460 nM.

`FC(F)(F)c1cccc(-c2ncn(CCCN3CCOCC3)c2-c2ccncc2)c1` came in with a half-inhibitory concentration (IC50) in experiment [1] of 460 nM.

`CSc1cccc(-c2ncn(CCCN3CCOCC3)c2-c2ccncc2)c1`: the half-inhibitory concentration (IC50) in experiment [1] was 290 nM. Moreover, in experiment [3], the Change is given as -10%.

`C[S+]([O-])CCCn1cnc(-c2ccc(F)cc2)c1-c1ccncc1` (stereo not drawn) registered an IC50 in experiment [1] of 1400 nM. For the same molecule, the Change in experiment [3] is given as -43%.

Turning to `C[S+]([O-])c1cccc(-n2cnc(-c3ccc(F)cc3)c2-c2ccncc2)c1` (stereo not drawn), the IC50 in experiment [1] came to 520 nM. In experiment [3], the Change was -20%.

`Fc1ccc(-c2ncn(CCCN3CCOCC3)c2-c2ccnc3ccccc23)cc1` returned an IC50 in experiment [1] of 9000 nM. The Change in experiment [3] is -19%.

Molecule `CCOCCCn1cnc(-c2ccc(F)cc2)c1-c1ccncc1` displayed a 50% inhibitory concentration (IC50) in experiment [1] of 100 nM. Besides, the Change in experiment [3] is reported as -29%.

`Clc1ccc(-c2ncn(CCCN3CCOCC3)c2-c2ccncc2)cc1Cl`: the figures for the IC50 in experiment [2], in experiment [1] and in experiment [4] were greater than 100000 nM, 320 nM and greater than 100000 nM, respectively. The Change in experiment [3] was -73%.

In the case of `CC(C)n1cnc(-c2ccc(F)cc2)c1-c1ccncc1`, the 50% inhibitory concentration (IC50) in experiment [1] is 120 nM. The Change in experiment [3] was -56%.

In experiment [1], `CSc1ccc(-n2cnc(-c3ccc(F)cc3)c2-c2ccncc2)cc1` had a half-maximal inhibitory concentration (IC50) of 1470 nM. Also, the Change in experiment [3] was -20%.

`CSc1ccc(-c2nc(-c3cccc(F)c3)c(-c3ccncc3)[nH]2)cc1` registered an IC50 in experiment [1] of 340 nM.

As to `Fc1ccc(-c2ncn(CCCSc3ccccc3)c2-c2ccncc2)cc1`, the IC50 in experiment [1] worked out at 80 nM. The Change in experiment [3] is -42%.

On to `CSCCCn1cnc(-c2ccc(F)cc2)c1-c1ccncc1`, for which the half-inhibitory concentration (IC50) in experiment [1] was 190 nM. Moreover, the Change in experiment [3] was -49%.

For `C[S+]([O-])c1ccccc1-n1cnc(-c2ccc(F)cc2)c1-c1ccncc1` (stereo not drawn), in experiment [1], the half-maximal inhibitory concentration (IC50) was 710 nM. Besides, in experiment [3], the Change is reported as 40%.

`Fc1ccc(-c2ncn(CCCN3CCOCC3)c2-c2cccnc2)cc1`: in experiment [1], the IC50 stood at 64700 nM. That is a double-digit micromolar value.

In experiment [1], `O=C(O)CCCn1cnc(-c2ccc(F)cc2)c1-c1ccncc1` came in with a concentration for half-maximal inhibition (IC50) of 3830 nM. Besides, the Change in experiment [3] was -47%.

In the case of `Fc1ccc(-c2ncn(CCCN3CCCCC3)c2-c2ccncc2)cc1`, the concentration for half-maximal inhibition (IC50) in experiment [1] stood at 1170 nM. Also, the Change in experiment [3] is -26%.

In turn, `Fc1ccc(-c2ncn(CCCNCc3ccccc3)c2-c2ccncc2)cc1` came in with a 50% inhibitory concentration (IC50) in experiment [1] of 70 nM. In addition, the Change in experiment [3] is recorded as -43%.

Consider `CSc1ccc(-c2nc3n(c2-c2ccncc2)CCC3)cc1`, for which the IC50 came out at 3000 nM in experiment [2] and 100000 nM in experiment [4].

The molecule `Nc1cc(-c2c(-c3ccc(F)cc3)ncn2CCCN2CCOCC2)ccn1` gave an IC50 in experiment [1] of 1180 nM. The Change in experiment [3] is -38%.

On to `Fc1ccc(-c2nc3n(c2-c2ccncc2)CCS3)cc1`, for which the 50% inhibitory concentration (IC50) in experiment [2] turned out to be 10000 nM; in experiment [4], 5400 nM.

`Cc1cc(-c2c(-c3ccc(F)cc3)ncn2CCCN2CCOCC2)ccn1` showed an IC50 in experiment [1] of 3050 nM. Also, the Change in experiment [3] was -37%.

`FC(F)(F)c1cc(-c2ncn(CCCN3CCOCC3)c2-c2ccncc2)cc(C(F)(F)F)c1` registered an IC50 in experiment [1] of 114000 nM.

Consider `Clc1cccc(-c2ncn(CCCN3CCOCC3)c2-c2ccncc2)c1`, for which the concentration for half-maximal inhibition (IC50) in experiment [1] worked out at 210 nM. The Change in experiment [3] was -49%.

For `Fc1ccc(-c2ncn(CCCN3CCCC3)c2-c2ccncc2)cc1`, in experiment [1], the 50% inhibitory concentration (IC50) was 340 nM. The Change in experiment [3] was -17%.

`Fc1ccc(-c2ncn(CCN3CCOCC3)c2-c2ccncc2)cc1`: the 50% inhibitory concentration (IC50) in experiment [1] was 760 nM. In addition, the Change in experiment [3] is on record as -25%.

With `CSc1cccc(-n2cnc(-c3ccc(F)cc3)c2-c2ccncc2)c1`, the IC50 in experiment [1] was found to be 120 nM. Also, in experiment [3], the Change is on record as -23%.

With `CSc1ccccc1-n1cnc(-c2ccc(F)cc2)c1-c1ccncc1`, the IC50 in experiment [1] is 80 nM. The Change in experiment [3] is given as 29%.

`[O-][S+](CCCn1cnc(-c2ccc(F)cc2)c1-c1ccncc1)c1ccccc1` (stereo not drawn) gave an IC50 in experiment [1] of 630 nM.

`Fc1ccc(-c2ncn(CCCOc3ccccc3)c2-c2ccncc2)cc1` had a concentration for half-maximal inhibition (IC50) in experiment [1] of 70 nM. Further, the Change in experiment [3] was -14%.

In experiment [1], `Fc1ccc(-c2ncn(CCCCN3CCOCC3)c2-c2ccncc2)cc1` had an IC50 of 480 nM. In addition, in experiment [3], the Change was -40%.

The molecule `CCN(CC)CCCn1cnc(-c2ccc(F)cc2)c1-c1ccncc1` came in with an IC50 in experiment [1] of 270 nM. Moreover, the Change in experiment [3] is -21%.

In experiment [1], `Cc1cc(-c2[nH]c(-c3ccc([S+](C)[O-])cc3)nc2-c2cccc(F)c2)ccn1` (stereo not drawn) yielded an IC50 of 370 nM. Further, the Change in experiment [3] is reported as -64%.

`COC(=O)CCCn1cnc(-c2ccc(F)cc2)c1-c1ccncc1` yielded a 50% inhibitory concentration (IC50) in experiment [1] of 290 nM. Further, the Change in experiment [3] is -33%.

Regarding `FC(F)(F)c1ccc(-c2ncn(CCCN3CCOCC3)c2-c2ccncc2)cc1`, the 50% inhibitory concentration (IC50) in experiment [1] is 2980 nM. In other words, the single-digit micromolar range.

In turn, `CC(C)(C)n1cnc(-c2ccc(F)cc2)c1-c1ccncc1` gave an IC50 in experiment [1] of 4740 nM. In experiment [3], the Change is -35%.

`C[S+]([O-])c1ccc(-n2cnc(-c3ccc(F)cc3)c2-c2ccncc2)cc1` (stereo not drawn) came in with an IC50 in experiment [1] of 750 nM. In other words, the sub-micromolar range.

`C[S+]([O-])c1cccc(-c2ncn(CCCN3CCOCC3)c2-c2ccncc2)c1` (stereo not drawn) registered an IC50 in experiment [1] of 4950 nM.

`CS(=O)(=O)CCCn1cnc(-c2ccc(F)cc2)c1-c1ccncc1` showed an IC50 in experiment [1] of 510 nM.

`NCCCn1cnc(-c2ccc(F)cc2)c1-c1ccncc1` had an IC50 in experiment [1] of 150 nM.

For the molecule `Fc1ccc(-c2nc[nH]c2-c2ccncc2)cc1`, the 50% inhibitory concentration (IC50) in experiment [2] is greater than 100000 nM; in experiment [1], 210 nM; in experiment [4], greater than 100000 nM. In addition, in experiment [3], the Change was -82%.

As to `C[S+]([O-])c1ccc(-c2nc(-c3ccc(F)cc3)c(-c3ccncc3)[nH]2)cc1` (stereo not drawn) [SB-203580], the Change in experiment [3] is -83%.

Regarding `Fc1ccc(-c2ncn(CCCN3CCOCC3)c2-c2ccncc2)cc1` [SB-210313], in experiment [2], the half-maximal inhibitory concentration (IC50) is greater than 100000 nM. The Change in experiment [3] was -55%.
